From patent US20260076973A1 (priority 2023, published 2026)
Counter-ions that a name gives are not always drawn. Like-named read-outs stand apart in the source and are kept apart here.

Tested on: SARS-CoV-2(delta variant)
Test: microbe, parasite or virus in culture
Type: cell-based
[1] = Severe acute respiratory syndrome coronavirus 2, Vero C1008, read-out: IC50
[2] = Severe acute respiratory syndrome coronavirus 2, Vero C1008, read-out: IC90
[3] = Severe acute respiratory syndrome coronavirus 2, Vero C1008

Structure (SMILES) | IC50 [1] [nM] | IC90 [2] [nM] | other results
Cc1cccc(N2C(N3CCOCC3)=NC(N)=NC2Nc2ccc(F)cc2)c1 (stereo not shown) [VIRADEM-11787, N-(4-Fluorophenyl)-6-morpholin-4-yl-N^1-m-tolyl-[1,3,5]triazine-2,4-diamine hydrochloride] | 404 | 446 | 
CC(=O)c1cccc(Nc2nc(Nc3ccccc3)nc(N3CCOCC3)n2)c1 [VIRADEM-12125, 1-[3-(4-Morpholin-4-yl-6-phenylamino-[1,3,5]triazin-2-ylamino)-phenyl]-ethanone hydrochloride] | 584 | 1370 | 
Cc1cccc(N2C(N3CCOCC3)=NC(N)=NC2Nc2cccc(Cl)c2)c1 (stereo not shown) [VIRADEM-11781, N-(3-Chlorophenyl)-6-morpholin-4-yl-N^1-m-tolyl-[1,3,5]triazine-2,4-diamine hydrochloride] | 1280 | 1370 | 
Cc1ccc(Nc2nc(N3CCOCC3)nc(N3CCCc4ccccc43)n2)cc1C [VIRADEM-15278, [4-(3,4-Dihydro-2-H-quinolin-1-yl)-6-morpholin-4-yl-[1,3,5]triazin-2-yl]-(3,4-dimethylphenyl)-amine] |  |  | IC50 (read-out: IC50): 194 nM; IC90 (read-out: IC90): 388 nM
CCOc1ccc(NC2N=C(N)N=C(N3CCOCC3)N2c2cccc(C)c2)cc1 (stereo not shown) [VIRADEM-11794, N-(4-Ethoxyphenyl)-6-morpholin-4-yl-N^1-m-tolyl-[1,3,5]triazine-2,4-diamine hydrochloride] | 545 | 855 | 
CC(=O)c1cccc(Nc2nc(Nc3ccc(Cl)cc3)nc(N3CCOCC3)n2)c1 [VIRADEM-11882, 1-{3-[4-(4-chlorophenylamino)-6-morpholin-4-yl-[1,3,5]triazin-2-ylamino]-phenyl}-ethanone] | 470 | 635 | 
Cc1ccc(Nc2nc(Nc3cccc(C(F)(F)F)c3)nc(N3CCOCC3)n2)cc1C [VIRADEM-11914, N-(3,4-Dimethylphenyl)-6-morpholin-4-yl-N^1-(3-trifluoromethylphenyl)-[1,3,5]triazine-2,4-diamine] | 382 | 437 | 
CCOC(=O)c1ccc(Nc2nc(Nc3ccc(F)cc3)nc(N3CCOCC3)n2)cc1 [VIRADEM-11660, 4-[4-(4-Fluorophenylamino)-6-morpholin-4-yl-[1,3,5]triazin-2-ylamino]benzoic acid ethyl ester] | 1860 | > 3000 | 
Cc1ccc(Nc2nc(N3CCCCCC3)nc(N3CCOCC3)n2)cc1 [VIRADEM-15229, (4-Azepan-1-yl-6-morpholin-4-yl-[1,3,5]triazin-2-yl)-p-tolyl-amine] | 1040 | 1190 | 
COc1ccc(Nc2nc(Nc3cccc(C)c3)nc(N3CCOCC3)n2)cc1 [hydrochloride] |  |  | IC50 [3]: 338 nM; IC90 [3]: 356 nM
Cc1cccc(Nc2nc(Nc3ccc(C(C)C)cc3)nc(N3CCOCC3)n2)c1 [VIRADEM-12251, N-(4-Isoproylphenyl)-6-morpholin-4-yl-N^1-m-tolyl-[1,3,5]triazine-2,4-diamine hydrochloride] |  |  | IC50 (read-out: IC50): 951 nM; IC90 (read-out: IC90): 1170 nM
CCOC(=O)c1ccc(Nc2nc(Nc3ccc(C)cc3)nc(N3CCOCC3)n2)cc1 [VIRADEM-11916, 4-(4-Morpholin-4-yl-6-p-tolylamino[1,3,5]-2-ylamino)-benzoic acid ethyl ester] |  |  | IC50 (read-out: IC50): 559 nM; IC90 (read-out: IC90): 707 nM
Cc1ccc(Nc2nc(Nc3ccc(C)c(C)c3)nc(N3CCOCC3)n2)cc1 [VIRADEM-11141] | 125 | 150 | 
CCOC(=O)c1ccc(Nc2nc(Nc3ccc(C)c(C)c3)nc(N3CCOCC3)n2)cc1 [VIRADEM-11913, 4-[4-(3,4-Dimethylphenylamino)-6-morpholin-4-yl-[1,3,5]-2-ylamino]-benzoic acid ethyl ester] |  |  | IC50 (read-out: IC50): 245 nM; IC90 (read-out: IC90): 331 nM
Cc1ccc(N2C(N3CCOCC3)=NC(N)=NC2Nc2cccc(F)c2)cc1 (stereo not shown) [VIRADEM-11785, N-(3-Fluorophenyl)-6-morpholin-4-yl-N^1-p-tolyl-[1,3,5]triazine-2,4-diamine hydrochloride] | 559 | 690 | 
COc1cccc(NC2N=C(N)N=C(N3CCOCC3)N2c2ccccc2)c1 (stereo not shown) [VIRADEM-12252, N-(3-Methoxyphenyl)-6-morpholin-4-yl-N^1-phenyl-[1,3,5]triazine-2,4-diamine hydrochloride] | 357 | 425 | 
Cc1cccc(N2C(N3CCOCC3)=NC(N)=NC2Nc2cccc(F)c2)c1 (stereo not shown) [VIRADEM-11786, N-(3-Fluorophenyl)-6-morpholin-4-yl-N^1-m-tolyl-[1,3,5]triazine-2,4-diamine hydrochloride] | 371 | 396 | 
CC(=O)Nc1ccc(Nc2nc(Nc3ccc(C)c(C)c3)nc(N3CCOCC3)n2)cc1 [VIRADEM-11918, N-{4-[4-(3,4-Dimethylphenylamino)-6-morpholin-4-yl-[1,3,5]triazin-2-ylamino]phenyl}-acetamide] | 41 | 60 | 
COC(=O)c1ccc(Nc2nc(Nc3cccc(OC)c3)nc(N3CCOCC3)n2)cc1 [VIRADEM-12329, 4-[4-(3-Methoxyphenylamino)-6-morpholin-4-yl-[1,3,5]triazin-2-ylamino]-benzoic acid methyl ester] | 368 | 465 | 
Cc1cccc(N2C(N3CCOCC3)=NC(N)=NC2Nc2ccc(Cl)cc2)c1 (stereo not shown) [VIRADEM-11680, N-(4-Chlorophenyl)-6-morpholin-4-yl-N^1-m-tolyl-[1,3,5]triazine-2,4-diamine hydrochloride] | 428 | 521 | 
CC(=O)Nc1ccc(Nc2nc(Nc3ccc(Cl)cc3)nc(N3CCOCC3)n2)cc1 [VIRADEM-11847, N-{4-[4-(4-Chlorophenylamino)-6-morpholin-4-yl-[1,3,5]triazin-2-ylamino]-phenyl}-acetamide] | 36 | 46 | 
Cc1ccc(Nc2nc(N3CCOCC3)nc(N3CCOCC3)n2)cc1C [VIRADEM-10884, (3,4-dimethylphenyl)-(4,6-dimorpholin-4-yl-[1,3,5]triazin-2-yl)-amine] | 389 | 477 | 
CCOC(=O)c1ccc(Nc2nc(Nc3cc(C)cc(C)c3)nc(N3CCOCC3)n2)cc1 [VIRADEM-11934, 4-[4-(3,5-Dimethylphenylamino)-6-morpholin-4-yl-[1,3,5]-2-ylamino]-benzoic acid ethyl ester] |  |  | IC50 (read-out: IC50): 1020 nM; IC90 (read-out: IC90): 1240 nM
